The values that follow are results of earlier work, collected in patent US6806373B2, “Process for preparing leflunomide form I” (Teva Pharmaceutical Industries Ltd., priority 1999, dated 2004).

For data set [1] the following is noted: solid form, according to AU-A-78870/98.
The conditions of data set [2]: according to AU-A-78870/98.
For data set [3] the following is noted: water or mixtures of water and C1-C4 alcohols, acetone or methyl ethyl ketone, even with heating (<40° C.).

In the case of `Cc1oncc1C(=O)Nc1ccc(C(F)(F)F)cc1` [Form II], the “kinetically stable up to (temperature)” value in data set [1] was “up to 40 °C”. Further, the “dissolution in water compared with Form I” value in data set [2] was “more readily dissolves in water than does Form I”.
Regarding `Cc1oncc1C(=O)Nc1ccc(C(F)(F)F)cc1` [leflunomide], the “solubility in suspension solvents” value in data set [3] is “poorly soluble”.
